What all share (format): functional
Assay [1] concerns Mycobacterium tuberculosis. Nature of the assay: Antituberculosis activity against Mycobacterium tuberculosis sCHN240 mutant CR3 strain assessed as reduction in bacterial growth.
Assay [2] concerns Mycobacterium tuberculosis. Put plainly: Antituberculosis activity against Mycobacterium tuberculosis sCHN240 mutant CR2 strain assessed as reduction in bacterial growth.
The test system of assay [3] is Mycobacterium tuberculosis. Nature of the assay: Antituberculosis activity against Mycobacterium tuberculosis sCHN240 mutant CR1 strain assessed as reduction in bacterial growth.
Assay [4] has as its system Mycobacterium tuberculosis. Put plainly: Antituberculosis activity against Mycobacterium tuberculosis sCHN240 mutant CR6 strain assessed as reduction in bacterial growth.
For assay [5], the system named is Mycobacterium tuberculosis. Put plainly: Antituberculosis activity against Mycobacterium tuberculosis sCHN240 mutant CR5 strain assessed as reduction in bacterial growth.
Assay [6] has as its system Mycobacterium tuberculosis. Nature of the assay: Antituberculosis activity against Mycobacterium tuberculosis Rv1625c mutant assessed as reduction in bacterial growth measured after 7 days using 7H9 broth by Alamar blue staining based analysis. To be noted: time 7 day. In general terms: The colour change of resazurin is a common sign of viable cells or microbes.

Values after ≈ are worked out from the molar mass of the structure shown. Some results are limits rather than exact numbers.

One may read the MIC90 as an inhibitory concentration at the 90% level, which refers to growth in some studies and to a panel of isolates in others.

`Cn1ncnc1CC(=O)N1CCC(c2nc(-c3ccc(Cl)c(Cl)c3)no2)CC1`: the MIC90 in assay [1], in assay [2], in assay [3], in assay [4] and in assay [5] was more than 20 µM in each case.
`O=S(=O)(Nc1cc(-c2ccsc2)no1)c1ccccc1F`: in assay [6], the MIC90 amounted to 19.9 µM (≈ 6.45 µg/mL).

Source of the values: ChEMBL document CHEMBL6114961, “Novel isoxazole thiophene-containing compounds active against Mycobacterium tuberculosis” (Bioorg Med Chem Lett, 2025).
